Results: patent publication US5741790A, “Azetidines” (Pfizer Inc., priority 1996, dated 1998)

Experiments:
NK2 receptor = target: T1, NK2 receptor (Oryctolagus cuniculus, UniProt P79218); experiment: NK2 receptor antagonist activity in vitro: antagonism of contractile effects of [βAla8]NKA(4-10) in rabbit pulmonary artery (Patacchini and Maggi); format: biochemical; details: agonist [βAla8]NKA(4-10), read-out: pA2, NK2 receptor antagonist activity (converted)
T1 construct: in the rabbit pulmonary artery; from tissue; host or cells: rabbit pulmonary artery
T1 sequence (P79218 1-384): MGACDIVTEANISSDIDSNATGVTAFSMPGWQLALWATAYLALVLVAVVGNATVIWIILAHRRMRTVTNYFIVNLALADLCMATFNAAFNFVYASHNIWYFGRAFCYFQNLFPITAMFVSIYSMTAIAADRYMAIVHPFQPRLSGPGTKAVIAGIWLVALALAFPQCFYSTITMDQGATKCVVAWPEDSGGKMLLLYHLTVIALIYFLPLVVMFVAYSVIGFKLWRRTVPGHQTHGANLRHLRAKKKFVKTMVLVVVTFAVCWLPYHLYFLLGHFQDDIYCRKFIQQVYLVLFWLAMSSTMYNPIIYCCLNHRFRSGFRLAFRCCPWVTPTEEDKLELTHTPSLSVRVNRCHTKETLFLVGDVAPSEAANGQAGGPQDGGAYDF
Text: The NK2 receptor antagonist activity of the compounds of the formula (I) can be tested, in vitro, by testing their ability to antagonise the contractile effects of the selective NK2 receptor agonist [βAla^8 ]NKA(4-10) in the rabbit pulmonary artery, using the method of Patacchini and Maggi, Eur. J. Pharmacol., 236, 31-37 (1993).

human NK2 receptor = target: T2, human NK2 receptor (Homo sapiens, UniProt P21452); experiment: NK2 receptor binding: competition with [3H] or [125I]NKA for binding to CHO cell membranes expressing cloned human NK2 receptor; details: membranes of Chinese hamster ovary cells expressing cloned human NK2 receptor, 90 min, 25° C., read-out: plC50, NK2 receptor binding activity (converted)
T2 construct: expressed in transfected cells; host or cells: Chinese hamster ovary (CHO) cells, membranes
T2 sequence (P21452 1-398): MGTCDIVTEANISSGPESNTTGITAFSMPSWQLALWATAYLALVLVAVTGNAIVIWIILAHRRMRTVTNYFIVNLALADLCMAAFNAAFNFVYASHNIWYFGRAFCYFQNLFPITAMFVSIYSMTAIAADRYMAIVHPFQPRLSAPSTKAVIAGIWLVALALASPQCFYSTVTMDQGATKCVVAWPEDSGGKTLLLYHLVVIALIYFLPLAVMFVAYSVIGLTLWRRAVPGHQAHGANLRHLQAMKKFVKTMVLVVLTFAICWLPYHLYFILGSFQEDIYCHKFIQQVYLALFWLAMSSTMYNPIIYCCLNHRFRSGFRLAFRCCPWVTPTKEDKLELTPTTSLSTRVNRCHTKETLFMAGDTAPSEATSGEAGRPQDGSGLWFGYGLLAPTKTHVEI
Protocol: The affinity of the compounds of formula (I) and their salts for the human NK2 receptor can be tested in vitro by testing their ability to compete with [^3 H] or […] (neurokinin A) for binding to membranes prepared from Chinese hamster ovary cells expressing the cloned human NK2 receptor. In this method, washed Chinese hamster ovary cell membranes are prepared as described for the previous method where IM9 cells are used instead. The membranes are incubated (90 min, 25° C.) with [^3 H] or [^125 I] NKA and with a range of concentrations of the test compound. Non-specific binding was determined in the presence of 10μM NKA.

For NS(=O)(=O)N1CCN(C2CN(CC[C@]3(c4ccc(Cl)c(Cl)c4)CCC(=O)N(CC4CCCCC4)C3=O)C2)CC1 [Example 3, 3(S)-3-(2-(3-(4-Aminosulphonylpiperazin-1-yl)azetidin-1-yl)ethyl)-1-cyclohexylmethyl-3-(3,4-dichlorophenyl)glutarimide], the Kb (NK2 receptor) was 7.94 nM and the IC50 (human NK2 receptor) was 0.501 nM.
